System: Male Wistar rats
Test: Arterial blood oxygenation after repeated saline lung lavage in rats
Format: in vivo, rat
Details: TIP 500 μg/animal alone, intratracheally, 1.2 mL in NaCl 0.9%; lung-lavaged rats; up to 150 min after administration
Protocol: Male Wistar rats were prepared as disclosed in Example 5. NaCl 0.9% (open circles), LUSUPULTIDE 12.5 mgPL/kg (filled squares), the circularized peptide […] (SEQ ID NO:3) (=TIP) 500 μg/animal (stars), or LUSUPULTIDE 12.5 mgPL/kg in combination with TIP 500 μg/animal (open squares) was administered intratracheally (administration volume 1.2 mL, solvent NaCl 0.9%). Arterial blood oxygenation (PaO2) was determined every 30 min up to 150 min after drug administration (t=210 min). […] Data are shown as mean ±SEM.*p<0.05, **p<0.01 versus LUSUPULTIDE 12.5 mgPL/kg
Male Wistar rats (230-280 g) were anaesthetized, catheterized to withdraw arterial blood, and ventilated with pure oxygen (=>PaO2˜500-550 mmHg). 30 min later lungs were ravaged 5-9 times with NaCl 0.9% (=>PaO2˜50-100 mmHg). After 60 min NaCl 0.9%, LUSUPULTIDE 12.5 mgPL/kg, TIP (500 μg/animal), or LUSUPULTIDE (12.5 mgPL/kg) in combination with TIP (500 μg/animal) was administered intratracheally (administration volume 1.2 mL, solvent NaCl 0.9%). Arterial blood oxygenation (PaO2) was determined every 30 min up to 150 min after drug administration (t=210 min).

Sequence: CGQRETPEGAEAKPWYC [TIP]
- Influence on arterial blood oxygenation (PaO2): no influence on oxygenation

Source: patent US8236750B2, “Composition comprising a pulmonary surfactant and a TNF-derived peptide” (Nycomed GmbH, priority 2004, dated 2012)
